# In ChEMBL document CHEMBL1122601, “Novel tetracyclic spiropiperidines. 4. Synthesis and pharmacological evaluation of spiro- and 6,7-dihydrospiro[benzo[b]pyrrolo[3,2,1-jk][1,4]benzodiazepine-2 (1H),4'-piperidine]s” (1984):
# How the values were obtained:
# Type in all cases: functional
# Mus musculus [1] = assay: Antidepressant activity by injecting 20 mg/kg of compound intraperitoneally and measuring the ability to prevent tetrabenazine (TBZ) induced ptosis in mice.; conditions: ip, route intraperitoneal
# Mus musculus [2] = assay: Analgesic activity by injecting compound subcutaneously and measuring the inhibition of phenyl-p-benzoquinone-induced writhing (PQW) in mice.; conditions: sc
# Mus musculus [3] = assay: Antidepressant activity by injecting compound intraperitoneally and measuring the ability to prevent tetrabenazine (TBZ) induced ptosis in mice.; conditions: ip
# Mus musculus [4] = species on record: Mus musculus; assay: Antidepressant activity by injecting compound perorally and measuring the ability to prevent tetrabenazine (TBZ) induced ptosis in mice.
SMILES,inhibition in vivo at 20 mg/kg (Mus musculus [1]),ED50 (Mus musculus [2]),ED50 (Mus musculus [3]),ED50 (Mus musculus [4])
CN1CCC2(CC1)CN1c3ccccc3N=Cc3cccc2c31,20%,,,
CC1=Nc2ccccc2N2CC3(CCN(C)CC3)c3cccc1c32.Cl.Cl,50%,4.7 mg/kg,,
CC1Nc2ccccc2N2CC3(CCN(C)CC3)c3cccc1c32.Cl.Cl (stereo not drawn),20%,9.73 mg/kg,,
CN1CCC2(CC1)CN(c1ccccc1N)c1ccccc12,,11.6 mg/kg,4 mg/kg,1.9 mg/kg
